Earlier results on two compounds are cited in patent publication US20050032677A1, “Fungicidal and/or bactericidal composition, production process thereof and sterilization method using the composition” (priority 2001, published 2005).

Like-named read-outs stand apart in the source and are kept apart here. *1 amine or outer side, *2 acyl side, *3 side chain or, on linkers, in order; H or OH if unused. Where a SMILES comes first, the peptide text is derived from it. Bridges are numbered along the chain shown (N, C = ends). [ ]: non-standard residue; d: D form. X1 = CC(C)CCCCCCCCC[C@H](CC(=O)[*:1])O[*:2]

In one data set the test system is mouse. The settings on record: hypodermic injection to a mouse.
A further data set concerns erythrocyte membrane. As to conditions: relative to mixing iturin and surfactin in the latter ratio (2:1).
The test system of the next data set is erythrocyte. The settings on record: relative to mixing iturin and surfactin.

For the compound `CC(C)CCCCCCCCC[C@@H]1CC(=O)N[C@@H](CCC(=O)O)C(=O)N[C@@H](CC(C)C)C(=O)N[C@H](CC(C)C)C(=O)N[C@@H](C(C)C)C(=O)N[C@@H](CC(=O)O)C(=O)N[C@H](CC(C)C)C(=O)N[C@@H](CC(C)C)C(=O)O1` [surfactin] (EL[dL]VD[dL]L; linker N-C via X1), the “critical micelle concentration (CMC)” value runs as follows: (aqueous solution) 250 µM; (in a 0.1M sodium hydrogencarbonate solution) 10 µM.

For the compound iturin, in the data set on mouse, the LD50 is listed as 157 mg/kg. The “amount bound to the erythrocyte membrane relative to iturin:surfactin 2:1” value in the data set with erythrocyte membrane was “at most a half”. The “hemolysis activity relative to iturin and surfactin mixture” value in the data set on erythrocyte is “about one sixth”. Also, the “critical micelle concentration (CMC)” value (aqueous solution) was 40 µM.

By LD50 is commonly meant the dose expected to kill half of the subjects tested.
